Assay results reported in patent US20220016060A1, “USE OF SODIUM 2-(3-PENTYLPHENYL)ACETATE IN THE TREATMENT OF ALSTRÖM SYNDROME” (LIMINAL BIOSCIENCES LIMITED, priority 2018, published 2022).
Several values for one entry are separate records, joined by “and”; a condition that tells them apart may be missing. Identical values can stand only once.

Experiments:
Assay type in all cases: in vivo, human
ALMS patients [1] = assay: Fasting plasma glucose (FPG); conditions: 800 mg daily oral; for FPG: individual subjects
Method: (§1) The study was a Phase 2, single-centre, single-arm, open-label study of sodium 2-(3-pentylphenyl)acetate administered at a total daily oral dose of 800 mg for up to 72 weeks in subjects with ALMS was undertaken. The initial duration of the study was 24 weeks, and subjects were offered to enrol into an extension phase of 36 or 48 weeks. The schedule of study procedures for the enrolment, intervention, and assessments for participants is outlined in FIG. 1. Sodium 2-(3-pentylphenyl)acetate was formulated in soft gelatine capsules containing 200 mg of Sodium 2-(3-pentylphenyl)acetate (amorphous powder) per capsule, polyethylene glycol 400, National Formulary (NF), hydrochloric acid (for pH adjustment), and water.

ALMS patients [2] = assay: Fasting insulin; conditions: for Change from Baseline Fasting Insulin, Mean / Change from Baseline Fasting Insulin, Median: 800 mg daily oral; for decrease of fasting insulin from baseline: Subject 826-001-003
Method: as §1

ALMS patients [3] = assay: C-peptide; conditions: for Change from Baseline C-Peptide, Mean / Change from Baseline C-Peptide, Median: 800 mg daily oral
Method: as §1

[4] = Subject 826-001-001, 204-day break in treatment
[5] = Subject 826-001-004, 30-day break in treatment
[6] = Subject 826-001-007, 32-day break in treatment

CCCCCc1cccc(CC(=O)[O-])c1.[Na+] [sodium 2-(3-pentylphenyl)acetate]
Change from Baseline FPG, Mean (ALMS patients [1]; Week 24, N=12): 0.33 mmol/L
Change from Baseline FPG, Median (ALMS patients [1]; Week 24, N=12): 0.30 mmol/L
FPG (ALMS patients [1]; EP Week 12 (Week 36)): 18.0 mmol/L and 4.8 mmol/L and 4.3 mmol/L and 5.2 mmol/L and 9.1 mmol/L and 4.4 mmol/L and 6.5 mmol/L and 6.6 mmol/L and 5.5 mmol/L and 19.9 mmol/L
FPG (ALMS patients [1]; EP Week 24 (Week 48)): 23.3 mmol/L and 3.8 mmol/L and 4.7 mmol/L and 6.9 mmol/L and 10.2 mmol/L and 4.8 mmol/L and 5.7 mmol/L and 6.2 mmol/L and 5.6 mmol/L and 13.8 mmol/L
FPG (ALMS patients [1]; EP Week 36 (Week 60)): 22.7 mmol/L and 5.0 mmol/L and 4.6 mmol/L and 13.8 mmol/L and 5.3 mmol/L (2×) and 4.7 mmol/L and 8.6 mmol/L and 14.9 mmol/L
FPG (ALMS patients [1]; EP Week 48 (Week 72)): 12.5 mmol/L and 5.5 mmol/L and 4.7 mmol/L
FPG (ALMS patients [1]; Week 12): 22.8 mmol/L and 4.6 mmol/L and 4.3 mmol/L and 5.3 mmol/L and 16.9 mmol/L and 7.0 mmol/L and 5.5 mmol/L and 17.6 mmol/L and 6.5 mmol/L and 5.0 mmol/L and 4.7 mmol/L
FPG (ALMS patients [1]; Week 24): 12.9 mmol/L and 4.9 mmol/L and 4.7 mmol/L and 5.7 mmol/L and 11.1 mmol/L and 4.8 mmol/L and 7.2 mmol/L and 7.4 mmol/L and 22.6 mmol/L and 6.5 mmol/L and 13.5 mmol/L and 6.1 mmol/L
Change from Baseline Fasting Insulin, Mean (ALMS patients [2]; EP Week 12 (Week 36), N=10): -920.20 pmol/L
Change from Baseline Fasting Insulin, Median (ALMS patients [2]; EP Week 12 (Week 36), N=10): -53.50 pmol/L
Change from Baseline Fasting Insulin, Mean (ALMS patients [2]; EP Week 24 (Week 48), N=9): -1371.78 pmol/L
Change from Baseline Fasting Insulin, Median (ALMS patients [2]; EP Week 24 (Week 48), N=9): -24.00 pmol/L
Change from Baseline Fasting Insulin, Mean (ALMS patients [2]; EP Week 36 (Week 60), N=8): -1191.63 pmol/L
Change from Baseline Fasting Insulin, Median (ALMS patients [2]; EP Week 36 (Week 60), N=8): 7.00 pmol/L
Change from Baseline Fasting Insulin, Mean (ALMS patients [2]; EP Week 48 (Week 72), N=3): -3933.00 pmol/L
Change from Baseline Fasting Insulin, Median (ALMS patients [2]; EP Week 48 (Week 72), N=3): 193.00 pmol/L
increase in fasting insulin from baseline (ALMS patients [2]; [4]): 420 pmol/L
decrease of fasting insulin from baseline (ALMS patients [2]; after 24 weeks): ~30%
decrease of fasting insulin from baseline (ALMS patients [2]; after 72 weeks): > 96%
increase in fasting insulin from baseline (ALMS patients [2]; [5]): 298 pmol/L
increase in fasting insulin from baseline (ALMS patients [2]; [6]): 1970 pmol/L
increase in fasting insulin from baseline (ALMS patients [2]; Subject 826-001-013, 30-day break in treatment): 1160 pmol/L
Change from Baseline Fasting Insulin, Mean (ALMS patients [2]; Week 12, N=12): -18.92 pmol/L
Change from Baseline Fasting Insulin, Median (ALMS patients [2]; Week 12, N=12): 9.00 pmol/L
Change from Baseline Fasting Insulin, Mean (ALMS patients [2]; Week 24, N=12): -339.08 pmol/L
Change from Baseline Fasting Insulin, Median (ALMS patients [2]; Week 24, N=12): -86.00 pmol/L
Fasting Insulin (ALMS patients [2]; by-subject listing, ALMS subjects, EP Week 48 (Week 72)): 460 pmol/L and 600 pmol/L and 303 pmol/L
Change from Baseline C-Peptide, Mean (ALMS patients [3]; EP Week 12 (Week 36), N=10): -350.90 pmol/L
Change from Baseline C-Peptide, Median (ALMS patients [3]; EP Week 12 (Week 36), N=10): 6.00 pmol/L
Change from Baseline C-Peptide, Mean (ALMS patients [3]; EP Week 24 (Week 48), N=9): -286.67 pmol/L
Change from Baseline C-Peptide, Median (ALMS patients [3]; EP Week 24 (Week 48), N=9): -40.00 pmol/L
Change from Baseline C-Peptide, Mean (ALMS patients [3]; EP Week 36 (Week 60), N=8): 219.88 pmol/L
Change from Baseline C-Peptide, Median (ALMS patients [3]; EP Week 36 (Week 60), N=8): -31.00 pmol/L
Change from Baseline C-Peptide, Mean (ALMS patients [3]; EP Week 48 (Week 72), N=3): 810.00 pmol/L
Change from Baseline C-Peptide, Median (ALMS patients [3]; EP Week 48 (Week 72), N=3): 737.00 pmol/L
increase in C-peptide from baseline (ALMS patients [3]; [4]): 817 pmol/L
increase in C-peptide from baseline (ALMS patients [3]; [5]): 1.757e+06 pmol/L
increase in C-peptide from baseline (ALMS patients [3]; Subject 826-001-005, 39-day break in treatment): 737 pmol/L
increase in C-peptide from baseline (ALMS patients [3]; [6]): 3580 pmol/L
Change from Baseline C-Peptide, Mean (ALMS patients [3]; Week 12, N=12): 473.50 pmol/L
Change from Baseline C-Peptide, Median (ALMS patients [3]; Week 12, N=12): 102.50 pmol/L
Change from Baseline C-Peptide, Mean (ALMS patients [3]; Week 24, N=12): 41.25 pmol/L
Change from Baseline C-Peptide, Median (ALMS patients [3]; Week 24, N=12): 84.50 pmol/L
